Assay results from US20260209215A1, “GLYCINE DERIVATIVES WITH P2X4 RECEPTOR-BLOCKING ACTIVITY AS DIAGNOSTICS AND FOR THE TREATMENT OF PAIN, INFLAMMATION, CANCER, AND OTHER P2X4 RECEPTOR-RELATED DISEASES” (RHEINISCHE-FRIEDRICH-WILHELMS-UNIVERSITÄT BONN, priority 2022, published 2026).

target: T1, P2X4 receptor (Homo sapiens, UniProt Q99571); assay: Measurement of Ca2+ influx in transfected 1321N1 astrocytoma cells (P2X4 inhibitory potency); format: cell-based; conditions: agonist-mediated Ca2+ influx, FLUO-4, 1321N1 astrocytoma cells; antagonists added 30 min before agonist
T1 construct: expressed in transfected cells; host or cells: 1321N1 astrocytoma cells, retroviral vector pQCXIN, G418 selection, monoclones
T1 sequence (Q99571 1-388): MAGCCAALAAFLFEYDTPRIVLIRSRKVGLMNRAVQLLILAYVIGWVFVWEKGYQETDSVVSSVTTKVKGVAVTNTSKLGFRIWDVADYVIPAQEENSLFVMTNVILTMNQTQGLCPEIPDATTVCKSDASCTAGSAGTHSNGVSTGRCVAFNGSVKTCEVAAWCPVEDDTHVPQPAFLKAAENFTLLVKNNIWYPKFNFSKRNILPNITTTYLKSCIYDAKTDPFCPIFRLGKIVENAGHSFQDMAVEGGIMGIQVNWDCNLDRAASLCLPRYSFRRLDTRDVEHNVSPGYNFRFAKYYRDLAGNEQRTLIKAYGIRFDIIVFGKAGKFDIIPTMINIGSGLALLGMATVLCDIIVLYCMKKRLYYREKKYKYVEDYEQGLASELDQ
How it was run: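 Stable 1321N1 astrocytoma cells expressing human P2X4, loaded with FLUO-4 AM (2.4 μM) in HBSS/HEPES pH 7.3 for 1 h at 23 °C. Antagonists added 30 min before agonist; fluorescence at 520 nm recorded for 30 s. Compounds tested at 7–8 concentrations spanning three log units.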

| Compound | IC50 [µM] |
| --- | --- |
| Cc1ccc(-c2ccc(C(C)C)cn2)cc1NCC(=O)N1CCc2c(OCCOCCO)cccc21 [Example 113, 1-(4-(2-(2-hydroxyethoxy)ethoxy)indolin-1-yl)-2-((5-(5-isopropylpyridin-2-yl)-2-methylphenyl)amino) ethan-1-one] | 0.04 to 0.069 |
| Cc1ccc(-c2ccc(C)c(NCC(=O)N3CCc4c(OCC(C)(C)O)cccc43)c2)nc1 [Example 117, 1-(4-(2-hydroxy-2-methylpropoxy)indolin-1-yl)-2-((2-methyl-5-(5-methylpyridin-2-yl)phenyl)amino)ethan-1-one] | 0.04 to 0.069 |
| COc1ccc(-c2ccc(C)cn2)cc1NCC(=O)N1CCc2cc(F)c(F)cc21 [Example 118, 1-(5,6-difluoroindolin-1-yl)-2-((2-methoxy-5-(5-methylpyridin-2-yl)phenyl)amino)ethan-1-one] | 0.04 to 0.069 |
| COC(=O)c1cccc2c1CCN2C(=O)CNc1cc(-c2ccc(C)cn2)ccc1OC [Example 119, methyl 1-((2-methoxy-5-(5-methylpyridin-2-yl)phenyl)glycyl) indoline-4-carboxylate] | 0.07 to 0.099 |
| O=C(CNc1cccc(-c2ccccn2)c1)c1c[nH]c2cc(F)c(F)cc12 [Example 122, 1-(5,6-difluoro-1H-indol-3-yl)-2-((3-(pyridin-2-yl)phenyl)amino)ethan-1-one] | > 0.1 |

Next, values leading:

| IC50 [µM] | Compound |
| --- | --- |
| 0.04 to 0.069 | Cc1ccc(-c2ccc(C3CC3)cn2)cc1NCC(=O)N1CCc2c(OCC(C)(C)O)cccc21 [Example 114, 2-((5-(5-cyclopropyl-pyridin-2-yl)-2-methyl-phenyl)amino)-1-(4-(2-hydroxy-2-methyl-propoxy)indolin-1-yl) ethan-1-one] |
| 0.04 to 0.069 | Cc1ccc(-c2ccc(Cl)cn2)cc1NCC(=O)N1CCc2c(OCC(C)(C)O)cccc21 [Example 115, 2-((5-(5-chloropyridin-2-yl)-2-methylphenyl)amino)-1-(4-(2-hydroxy-2-methyl-propoxy)-indolin-1-yl)ethan-1-one] |
| 0.07 to 0.099 | Cc1ccc(-c2ccc(C)c(NCC(=O)N3CCc4c(CO)cccc43)c2)nc1 [Example 116, 1-(4-(hydroxymethyl)indolin-1-yl)-2-((2-methyl-5-(5-methylpyridin-2-yl)phenyl)amino)ethan-1-one] |
| 0.04 to 0.069 | COc1ccc(-c2ccc(C)cn2)cc1NCC(=O)N1CCc2c(OC)cccc21 [Example 120, 2-((2-methoxy-5-(5-methyl-pyridin-2-yl)phenyl)amino)-1-(4-methoxyindolin-1-yl) ethan-1-one] |
| > 0.1 | COc1ccc(-c2cc(C)c(C)cn2)cc1NCC(=O)N1CCc2c(O)cccc21 [Example 121, 2-((5-(4,5-dimethyl-pyridin-2-yl)-2-methoxyphenyl)amino)-1-(4-hydroxyindolin-1-yl) ethan-1-one] |
